Laboratory results published in patent publication US8759535B2, “Substituted fused imidazole derivatives, pharmaceutical compositions, and methods of use thereof” (High Point Pharmaceuticals, LLC, priority 2010, dated 2014).
Structures can show the parent of a compound that is named as a salt.

System: HMOX1
Assay: HMOX1 Protein Assay (immunostaining of HO-1 in NHLF cells, GE InCell 1000)
Assay type: cell-based
Settings: Homo sapiens, fold change above DMSO treated cells, 5 μM compound, 16 h
Procedure, shortened: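 Fold induction of HO-1 over vehicle, normally at 5 μM compound (asterisk marks 3 μM), in 0.8% DMSO medium. Normal human lung fibroblasts were treated 16 h, then paraformaldehyde-fixed, anti-HO-1/Alexa 488 stained with Hoechst, and read by high-content imaging.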

CNC(=O)c1ccc2c(c1)nc(Nc1nc3ccc(C)cc3s1)n2C [Example 128, 2-(6-Methyl-benzothiazol-2-ylamino)-1-methyl-1H-benzimidazole-5-carboxylic acid methylamide]
fold induction at 5 µM: 32.7

COCCNC(=O)c1ccc2c(c1)nc(Nc1nc3ccc(C)cc3s1)n2C [Example 129, 2-(6-Methyl-benzothiazol-2-ylamino)-1-methyl-1H-benzimidazole-5-carboxylic acid (2-methoxy-ethyl)-amide]
fold induction at 5 µM: 31

CSCCNC(=O)c1ccc2c(c1)nc(Nc1nc3ccc(S(C)(=O)=O)cc3s1)n2C [Example 130, 2-(6-Methanesulfonyl-benzothiazol-2-ylamino)-1-methyl-1H-benzimidazole-5-carboxylic acid (2-methylsulfanyl-ethyl)-amide]
fold induction at 5 µM: 5.3

Cn1c(Nc2nc3ccc(S(C)(=O)=O)cc3s2)nc2cc(C(=O)NCCS(C)(=O)=O)ccc21 [Example 131, 2-(6-Methanesulfonyl-benzothiazol-2-ylamino)-1-methyl-1H-benzimidazole-5-carboxylic acid (2-methylsulfonyl-ethyl)-amide]
fold induction at 5 µM: 6.8

COC(=O)c1ccc2c(c1)nc(Nc1nc3ccc(SC(F)(F)F)cc3s1)n2C [Example 132, 1-Methyl-2-(6-trifluoromethylsulfanyl-benzothiazol-2-ylamino)-1H-benzoimidazole-5-carboxylic acid methyl ester]
fold induction at 5 µM: 5.8

CN(C)C(=O)CNC(=O)c1ccc2c(c1)nc(Nc1nc3ccc(Cl)cc3s1)n2C [Example 133, 2-(6-Chloro-benzothiazol-2-ylamino)-1-methyl-1H-benzimidazole-5-carboxylic acid dimethylcarbamoylmethyl-amide]
fold induction at 5 µM: 45.9

CN(C)C(=O)CNC(=O)c1ccc2c(c1)nc(Nc1nc3ccc(C(F)(F)F)cc3s1)n2C [Example 134, 1-Methyl-2-(6-trifluoromethyl-benzothiazol-2-ylamino)-1H-benzimidazole-5-carboxylic acid dimethylcarbamoylmethyl-amide]
fold induction at 5 µM: 54.5

CN(C)C(=O)CCNC(=O)c1ccc2c(c1)nc(Nc1nc3ccc(OC(F)(F)F)cc3s1)n2C [Example 135, 1-Methyl-2-(6-trifluoromethoxy-benzothiazol-2-ylamino)-1H-benzimidazole-5-carboxylic acid (2-dimethylcarbamoyl-ethyl)-amide]
fold induction at 5 µM: 49.6

Cn1c(Nc2nc3ccc(OC(F)(F)F)cc3s2)nc2cc(C(=O)NCCC(=O)OC(C)(C)C)ccc21 [Example 136, 3-{[1-Methyl-2-(6-trifluoromethoxy-benzothiazol-2-ylamino)-1H-benzimidazole-5-carbonyl]-amino}-propionic acid tert-butyl ester]
fold induction at 5 µM: 5.7

CN1CCN(C(=O)CNC(=O)c2ccc3c(c2)nc(Nc2nc4ccc(OC(F)(F)F)cc4s2)n3C)CC1 [Example 137, 1-Methyl-2-(6-trifluoromethoxy-benzothiazol-2-ylamino)-1H-benzimidazole-5-carboxylic acid [2-(4-methyl-piperazin-1-yl)-2-oxo-ethyl]-amide]
fold induction at 5 µM: 6

Cn1c(Nc2nc3ccc(OC(F)(F)F)cc3s2)nc2cc(C(=O)NCC(=O)N3CCOCC3)ccc21 [Example 138, 1-Methyl-2-(6-trifluoromethoxy-benzothiazol-2-ylamino)-1H-benzimidazole-5-carboxylic acid (2-morpholin-4-yl-2-oxo-ethyl)-amide]
fold induction at 5 µM: 11

CNC(=O)CNC(=O)c1ccc2c(c1)nc(Nc1nc3ccc(OC(F)(F)F)cc3s1)n2C [Example 139, 1-Methyl-2-(6-trifluoromethoxy-benzothiazol-2-ylamino)-1H-benzimidazole-5-carboxylic acid methylcarbamoylmethyl-amide]
fold induction at 5 µM: 18.8

CCN(CC)C(=O)CNC(=O)c1ccc2c(c1)nc(Nc1nc3ccc(OC(F)(F)F)cc3s1)n2C [Example 140, 1-Methyl-2-(6-trifluoromethoxy-benzothiazol-2-ylamino)-1H-benzimidazole-5-carboxylic acid diethylcarbamoylmethyl-amide]
fold induction at 5 µM: 19.3

Cn1c(Nc2nc3ccc(OC(F)(F)F)cc3s2)nc2cc(C(=O)NCC(=O)N3CCCC3)ccc21 [Example 141, 1-Methyl-2-(6-trifluoromethoxy-benzothiazol-2-ylamino)-1H-benzimidazole-5-carboxylic acid (2-oxo-2-pyrrolidin-1-yl-ethyl)-amide]
fold induction at 5 µM: 23.1

Cn1c(Nc2nc3ccc(OC(F)(F)F)cc3s2)nc2cc(C(=O)NCC(=O)N3CCN(C(=O)OC(C)(C)C)CC3)ccc21 [Example 142, 4-(2-{[1-Methyl-2-(6-trifluoromethoxy-benzothiazol-2-ylamino)-1H-benzimidazole-5-carbonyl]-amino}-acetyl)-piperazine-1-carboxylic acid tert-butyl ester]
fold induction at 5 µM: 15.2

COC(=O)[C@H](C)NC(=O)c1ccc2c(c1)nc(Nc1nc3ccc(OC(F)(F)F)cc3s1)n2C [Example 143, (S)-2-{[1-Methyl-2-(6-trifluoromethoxy-benzothiazol-2-ylamino)-1H-benzoimidazole-5-carbonyl]-amino}-propionic acid methyl ester]
fold induction at 5 µM: 22.4

CCOC(=O)C1(NC(=O)c2ccc3c(c2)nc(Nc2nc4ccc(OC(F)(F)F)cc4s2)n3C)CC1 [Example 144, 1-{[1-Methyl-2-(6-trifluoromethoxy-benzothiazol-2-ylamino)-1H-benzimidazole-5-carbonyl]-amino}-cyclopropanecarboxylic acid ethyl ester]
fold induction at 5 µM: 7.3

COC(=O)C(C)(C)NC(=O)c1ccc2c(c1)nc(Nc1nc3ccc(OC(F)(F)F)cc3s1)n2C [Example 145, 2-Methyl-2-{[1-methyl-2-(6-trifluoromethoxy-benzothiazol-2-ylamino)-1H-benzimidazole-5-carbonyl]-amino}-propionic acid methyl ester]
fold induction at 5 µM: 7.1

C[C@H](NC(=O)c1ccc2c(c1)nc(Nc1nc3ccc(OC(F)(F)F)cc3s1)n2C)C(=O)O [Example 146, (S)-2-{[1-Methyl-2-(6-trifluoromethoxy-benzothiazol-2-ylamino)-1H-benzoimidazole-5-carbonyl]-amino}-propionic acid]
fold induction at 5 µM: 3.7

Cn1c(Nc2nc3ccc(OC(F)(F)F)cc3s2)nc2cc(C(=O)NC3(C(=O)O)CC3)ccc21 [Example 147, 1-{[1-Methyl-2-(6-trifluoromethoxy-benzothiazol-2-ylamino)-1H-benzimidazole-5-carbonyl]-amino}-cyclopropanecarboxylic acid]
fold induction at 5 µM: 1.8

Cn1c(Nc2nc3ccc(OC(F)(F)F)cc3s2)nc2cc(C(=O)NC(C)(C)C(=O)O)ccc21 [Example 148, 2-Methyl-2-{[1-methyl-2-(6-trifluoromethoxy-benzothiazol-2-ylamino)-1H-benzimidazole-5-carbonyl]-amino}-propionic acid]
fold induction at 5 µM: 12

C[C@H](NC(=O)c1ccc2c(c1)nc(Nc1nc3ccc(OC(F)(F)F)cc3s1)n2C)C(=O)N(C)C [Example 149, 1-Methyl-2-(6-trifluoromethoxy-benzothiazol-2-ylamino)-1H-benzoimidazole-5-carboxylic acid ((S)-1-dimethylcarbamoyl-ethyl)-amide]
fold induction at 5 µM: 38.7

CN(C)C(=O)C1(NC(=O)c2ccc3c(c2)nc(Nc2nc4ccc(OC(F)(F)F)cc4s2)n3C)CC1 [Example 150, 1-Methyl-2-(6-trifluoromethoxy-benzothiazol-2-ylamino)-1H-benzimidazole-5-carboxylic acid (1-dimethylcarbamoyl-cyclopropyl)-amide]
fold induction at 5 µM: 41.6

CN(C)C(=O)C(C)(C)NC(=O)c1ccc2c(c1)nc(Nc1nc3ccc(OC(F)(F)F)cc3s1)n2C [Example 151, 1-Methyl-2-(6-trifluoromethoxy-benzothiazol-2-ylamino)-1H-benzimidazole-5-carboxylic acid (1-dimethylcarbamoyl-1-methyl-ethyl)-amide]
fold induction at 5 µM: 41.3

Cn1c(Nc2nc3ccc(OC(F)(F)F)cc3s2)nc2cc(C(=O)NCC(=O)N3CCNCC3)ccc21 [Example 152, 1-Methyl-2-(6-trifluoromethoxy-benzothiazol-2-ylamino)-1H-benzimidazole-5-carboxylic acid (2-oxo-2-piperazin-1-yl-ethyl)-amide hydrochloride]
fold induction at 5 µM: 15

CCn1c(Nc2nc3ccc(OC(F)(F)F)cc3s2)nc2cc(C(=O)OC)ccc21 [Example 153, 1-Ethyl-2-(6-trifluoromethoxy-benzothiazol-2-ylamino)-1H-benzoimidazole-5-carboxylic acid methyl ester]
fold induction at 5 µM: 4

CCn1c(Nc2nc3ccc(OC(F)(F)F)cc3s2)nc2cc(C(=O)O)ccc21 [Example 154, 1-Ethyl-2-(6-trifluoromethoxy-benzothiazol-2-ylamino)-1H-benzoimidazole-5-carboxylic acid]
fold induction at 5 µM: 27.1

CCn1c(Nc2nc3ccc(OC(F)(F)F)cc3s2)nc2cc(C(=O)NC)ccc21 [Example 155, 1-Ethyl-2-(6-trifluoromethoxy-benzothiazol-2-ylamino)-1H-benzoimidazole-5-carboxylic acid methylamide]
fold induction at 5 µM: 24.3

CCNC(=O)c1ccc2c(c1)nc(Nc1nc3ccc(OC(F)(F)F)cc3s1)n2CC [Example 156, 1-Ethyl-2-(6-trifluoromethoxy-benzothiazol-2-ylamino)-1H-benzoimidazole-5-carboxylic acid ethylamide]
fold induction at 5 µM: 21

CCOCCNC(=O)c1ccc2c(c1)nc(Nc1nc3ccc(OC(F)(F)F)cc3s1)n2CC [Example 157, 1-Ethyl-2-(6-trifluoromethoxy-benzothiazol-2-ylamino)-1H-benzoimidazole-5-carboxylic acid (2-ethoxy-ethyl)-amide]
fold induction at 5 µM: 22.1

COC(=O)c1ccc2c(c1)nc(Nc1nc3ccc(OC(F)(F)F)cc3s1)n2C(C)C [Example 158, 1-Isopropyl-2-(6-trifluoromethoxy-benzothiazol-2-ylamino)-1H-benzoimidazole-5-carboxylic acid methyl ester]
fold induction at 5 µM: 1.7
